Laboratory results: US20260022143A1, “Cyclic Peptide Inhibitors of IL-23” (JANSSEN PHARMACEUTICA NV, priority 2022, published 2026)
Starred links: 1 amine or outer side, 2 acyl side, 3 side chain; linkers in the order of their positions; H or OH if unused. Positions of bridges follow the written chain, without caps; N, C: chain ends. Non-standard residues stand in square brackets, D forms with d. Residues, ends and D or L forms follow the SMILES beside them. *: point of attachment. X36 = C[N+]1(CCCc2cn(-c3ccc(C[C@H](N[*:1])C(=O)[*:2])cc3)nn2)CCOCC1; X33 = C[N+](C)(C)CCCCc1cn(-c2ccc(C[C@H](N[*:1])C(=O)[*:2])cc2)nn1; X51 = C[N+](C)(C)CCCc1cn(-c2ccc(C[C@H](N[*:1])C(=O)[*:2])cc2)nn1; X16 = C[N+](C)(C)Cc1cn(-c2ccc(C[C@H](N[*:1])C(=O)[*:2])cc2)nn1; Me3N+(CH2)2O(CH2)2O(CH2)2CO = C[N+](C)(C)CCOCCOCCC(=O)*; CH2CH2OCH2CH2OCH2CH2NMe3+ = C[N+](C)(C)CCOCCOCC*; Phe(4-N3) = [N-]=[N+]=Nc1ccc(C[C@H](N)C(=O)O)cc1; Trp(7-Me) = Cc1cccc2c(C[C@H](N)C(=O)O)c[nH]c12; X20 = C[N+](C)(C)CC[C@H](N[*:1])C(=O)[*:2]; 2Nal = N[C@@H](Cc1ccc2ccccc2c1)C(=O)O; X22 = CN1CC[N+](C)(CCOCCOCC*)CC1; 3Pal = N[C@@H](Cc1cccnc1)C(=O)O; Lys(Me) = CNCCCC[C@H](N)C(=O)O; X53 = C[N+]1(CCOCCOCC*)CCOCC1; Pen = CC(C)(S)[C@H](N)C(=O)O; Thp = NC1(C(=O)O)CCOCC1; X17 = C[N+]1(CC*)CCOCC1; X3 = C[N+](C)(C)CCCCC*; Sar = CNCC(=O)O

Assay: Exposed Polar Surface Area (EPSA)
Assay type: physicochemical
Conditions: SFC on Chirex 3014 column; sample 1 mM DMSO stock; read-out: EPSA
Procedure, shortened: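 Chirex 3014 column, 35 °C, 4 mL/min; CO2/MeOH + 20 mM NH4 formate, 5→60% modifier at 20%/min. UV/MS detection. EPSA (Å^2) from retention time vs 8-standard calibration line; duplicates; 1 mM DMSO stock injected undiluted.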

EPSA [A^2] | Compound
170 | CC(=O)NCCCC[C@@H]1NC(=O)[C@H](Cc2c[nH]c3c(C)cccc23)NC(=O)[C@H]([C@@H](C)O)NC(=O)[C@H](CC(N)=O)NC(=O)[C@@H](NC(=O)CCOCCOCC[N+](C)(C)C)C(C)(C)SSC(C)(C)[C@@H](C(=O)N[C@@H](Cc2ccc(-n3cc(CCC[N+](C)(C)C)nn3)cc2)C(=O)N[C@@H](Cc2ccc3ccccc3c2)C(=O)NC2(C(=O)N[C@@H](CCCCNC(C)=O)C(=O)N[C@@H](CC(N)=O)C(=O)N[C@@H](Cc3cccnc3)C(=O)N(C)CC(N)=O)CCOCC2)NC1=O [compound 420, cPEG3aCO-Pen(3)-N-T-7MeW-K(Ac)-Pen(3)-F(4TzlTMA3)-2Nal-THP-K(Ac)-N-3Pya-Sar-CONH2] ({Me3N+(CH2)2O(CH2)2O(CH2)2CO}-[Pen]NT[Trp(7-Me)]K(Ac)[Pen][X51][2Nal][Thp]K(Ac)N[3Pal][Sar]-NH2; disulfide 1-6)
161 | CC(=O)NCCCC[C@@H]1NC(=O)[C@H](Cc2c[nH]c3c(C)cccc23)NC(=O)[C@H]([C@@H](C)O)NC(=O)[C@H](CC(N)=O)NC(=O)[C@@H](NC(C)=O)C(C)(C)SSC(C)(C)[C@@H](C(=O)N[C@@H](Cc2ccc(-n3cc(CCC[N+](C)(C)C)nn3)cc2)C(=O)N[C@@H](Cc2ccc3ccccc3c2)C(=O)NC2(C(=O)N[C@@H](CCCCNC(C)=O)C(=O)N[C@@H](CC(N)=O)C(=O)N[C@@H](Cc3cccnc3)C(=O)N(C)CC(N)=O)CCOCC2)NC1=O [compound 423] (Ac-[Pen]NT[Trp(7-Me)]K(Ac)[Pen][X51][2Nal][Thp]K(Ac)N[3Pal][Sar]-NH2; disulfide 1-6)
161 | CC(=O)NCCCC[C@@H]1NC(=O)[C@H](Cc2c[nH]c3c(C)cccc23)NC(=O)[C@H]([C@@H](C)O)NC(=O)[C@H](CC(N)=O)NC(=O)[C@@H](NC(C)=O)C(C)(C)SSC(C)(C)[C@@H](C(=O)N[C@@H](Cc2ccc(-n3cc(CCCC[N+](C)(C)C)nn3)cc2)C(=O)N[C@@H](Cc2ccc3ccccc3c2)C(=O)NC2(C(=O)N[C@@H](CCCCNC(C)=O)C(=O)N[C@@H](CC(N)=O)C(=O)N[C@@H](Cc3cccnc3)C(=O)N(C)CC(N)=O)CCOCC2)NC1=O [compound 425] (Ac-[Pen]NT[Trp(7-Me)]K(Ac)[Pen][X33][2Nal][Thp]K(Ac)N[3Pal][Sar]-NH2; disulfide 1-6 (inferred))
168 | CC(=O)NCCCC[C@@H]1NC(=O)[C@H](Cc2c[nH]c3c(C)cccc23)NC(=O)[C@H]([C@@H](C)O)NC(=O)[C@H](CC(N)=O)NC(=O)[C@@H](NC(=O)CCOCCOCC[N+](C)(C)C)C(C)(C)SSC(C)(C)[C@@H](C(=O)N[C@@H](Cc2ccc(OCCCCC[N+](C)(C)C)cc2)C(=O)N[C@@H](Cc2ccc3ccccc3c2)C(=O)NC2(C(=O)N[C@@H](CCC(=O)O)C(=O)N[C@@H](CC(N)=O)C(=O)N[C@@H](Cc3cccnc3)C(=O)N(C)CC(N)=O)CCOCC2)NC1=O [compound 427, cPEG3aCO-Pen(3)-N-T-7MeW-K(Ac)-Pen(3)-TMAPF-2Nal-THP-E-N-3Pya-Sar-CONH2] ({Me3N+(CH2)2O(CH2)2O(CH2)2CO}-[Pen]NT[Trp(7-Me)]K(Ac)[Pen]Y(X3)[2Nal][Thp]EN[3Pal][Sar]-NH2; disulfide 1-6)
192 | CC(=O)NCCCC[C@@H]1NC(=O)[C@H](Cc2c[nH]c3ccccc23)NC(=O)[C@H]([C@@H](C)O)NC(=O)[C@H](CC(N)=O)NC(=O)[C@@H](NC(=O)[C@@H](CCCNC(=N)N)NC(C)=O)C(C)(C)SSC(C)(C)[C@@H](C(=O)N[C@@H](Cc2ccc(OCC[N+]3(C)CCOCC3)cc2)C(=O)N[C@@H](Cc2ccc3ccccc3c2)C(=O)NC2(C(=O)N[C@@H](CCC(=O)O)C(=O)N[C@@H](CC(N)=O)C(=O)N[C@@H](Cc3cccnc3)C(=O)N(C)CC(N)=O)CCOCC2)NC1=O [compound 429] (Ac-[dR][Pen]NTWK(Ac)[Pen]Y(X17)[2Nal][Thp]EN[3Pal][Sar]-NH2; disulfide 2-7)
174 | CC(=O)NCCCC[C@@H]1NC(=O)[C@H](Cc2c[nH]c3c(C)cccc23)NC(=O)[C@H]([C@@H](C)O)NC(=O)[C@H](CC(N)=O)NC(=O)[C@@H](NC(C)=O)C(C)(C)SSC(C)(C)[C@@H](C(=O)N[C@@H](Cc2ccc(OCC[N+]3(C)CCOCC3)cc2)C(=O)N[C@@H](Cc2ccc3ccccc3c2)C(=O)NC2(C(=O)N[C@@H](CCC(=O)O)C(=O)N[C@@H](CC(N)=O)C(=O)N[C@@H](Cc3cccnc3)C(=O)N(C)CC(N)=O)CCOCC2)NC1=O [compound 431] (Ac-[Pen]NT[Trp(7-Me)]K(Ac)[Pen]Y(X17)[2Nal][Thp]EN[3Pal][Sar]-NH2; disulfide 1-6 (inferred))
167 | CC(=O)NCCCC[C@@H]1NC(=O)[C@H](Cc2c[nH]c3c(C)cccc23)NC(=O)[C@H]([C@@H](C)O)NC(=O)[C@H](CC(N)=O)NC(=O)[C@@H](NC(C)=O)C(C)(C)SSC(C)(C)[C@@H](C(=O)N[C@@H](Cc2ccc(OCCOCCOCC[N+]3(C)CCOCC3)cc2)C(=O)N[C@@H](Cc2ccc3ccccc3c2)C(=O)NC2(C(=O)N[C@@H](CCC(=O)O)C(=O)N[C@@H](CC(N)=O)C(=O)N[C@@H](Cc3cccnc3)C(=O)N(C)CC(N)=O)CCOCC2)NC1=O [compound 432] (Ac-[Pen]NT[Trp(7-Me)]K(Ac)[Pen]Y(X53)[2Nal][Thp]EN[3Pal][Sar]-NH2; disulfide 1-6 (inferred))
164 | CC(=O)NCCCC[C@@H]1NC(=O)[C@H](Cc2c[nH]c3c(C)cccc23)NC(=O)[C@H]([C@@H](C)O)NC(=O)[C@H](CC(N)=O)NC(=O)[C@@H](NC(C)=O)C(C)(C)SSC(C)(C)[C@@H](C(=O)N[C@@H](Cc2ccc(OCCOCCOCC[N+]3(C)CCN(C)CC3)cc2)C(=O)N[C@@H](Cc2ccc3ccccc3c2)C(=O)NC2(C(=O)N[C@@H](CCC(=O)O)C(=O)N[C@@H](CC(N)=O)C(=O)N[C@@H](Cc3cccnc3)C(=O)N(C)CC(N)=O)CCOCC2)NC1=O [compound 433] (Ac-[Pen]NT[Trp(7-Me)]K(Ac)[Pen]Y(X22)[2Nal][Thp]EN[3Pal][Sar]-NH2; disulfide 1-6 (inferred))
182 | CC(=O)NCCCC[C@@H]1NC(=O)[C@H](Cc2c[nH]c3c(C)cccc23)NC(=O)[C@H]([C@@H](C)O)NC(=O)[C@H](CC(N)=O)NC(=O)[C@@H](NC(C)=O)C(C)(C)SSC(C)(C)[C@@H](C(=O)N[C@@H](Cc2ccc(N=[N+]=[N-])cc2)C(=O)N[C@@H](Cc2ccc3ccccc3c2)C(=O)NC2(C(=O)N[C@@H](CCC(=O)O)C(=O)N[C@@H](CC(N)=O)C(=O)N[C@@H](Cc3cccnc3)C(=O)N(C)CC(N)=O)CCOCC2)NC1=O [compound 435] (Ac-[Pen]NT[Trp(7-Me)]K(Ac)[Pen][Phe(4-N3)][2Nal][Thp]EN[3Pal][Sar]-NH2; disulfide 1-6 (inferred))
149 | CC(=O)N[C@@H]1C(=O)N[C@@H](CC[N+](C)(C)C)C(=O)N[C@@H]([C@@H](C)O)C(=O)N[C@@H](Cc2c[nH]c3c(C)cccc23)C(=O)N[C@@H](CCCCN(C)C(C)=O)C(=O)N[C@H](C(=O)N[C@@H](Cc2ccc(OCCOCCOCC[N+](C)(C)C)cc2)C(=O)N[C@@H](Cc2ccc3ccccc3c2)C(=O)NC2(C(=O)N[C@@H](CCCCN(C)C(C)=O)C(=O)N[C@@H](CC(N)=O)C(=O)N[C@@H](Cc3cccnc3)C(=O)N(C)CC(=O)N(C)C)CCOCC2)C(C)(C)SSC1(C)C [compound 436] (Ac-[Pen][X20]T[Trp(7-Me)][Lys(Me)](Ac)[Pen]Y(CH2CH2OCH2CH2OCH2CH2NMe3+)[2Nal][Thp][Lys(Me)](Ac)N[3Pal][Sar]-NMe2; disulfide 1-6)
167 | CC(=O)NCCCC[C@@H]1NC(=O)[C@H](Cc2c[nH]c3c(C)cccc23)NC(=O)[C@H]([C@@H](C)O)NC(=O)[C@H](CC(N)=O)NC(=O)[C@@H](NC(=O)CCOCCOCC[N+](C)(C)C)C(C)(C)SSC(C)(C)[C@@H](C(=O)N[C@@H](Cc2ccc(-n3cc(CCC[N+]4(C)CCOCC4)nn3)cc2)C(=O)N[C@@H](Cc2ccc3ccccc3c2)C(=O)NC2(C(=O)N[C@@H](CCCCNC(C)=O)C(=O)N[C@@H](CC(N)=O)C(=O)N[C@@H](Cc3cccnc3)C(=O)N(C)CC(N)=O)CCOCC2)NC1=O [compound 439, cPEG3aCO-Pen(3)-N-T-7MeW-K(Ac)-Pen(3)-F(4TzlMMo3)-2Nal-THP-K(Ac)-N-3Pya-Sar-CONH2] ({Me3N+(CH2)2O(CH2)2O(CH2)2CO}-[Pen]NT[Trp(7-Me)]K(Ac)[Pen][X36][2Nal][Thp]K(Ac)N[3Pal][Sar]-NH2; disulfide 1-6)
176 | CC(=O)NCCCC[C@@H]1NC(=O)[C@H](Cc2c[nH]c3c(C)cccc23)NC(=O)[C@H]([C@@H](C)O)NC(=O)[C@H](CC(N)=O)NC(=O)[C@@H](NC(C)=O)C(C)(C)SSC(C)(C)[C@@H](C(=O)N[C@@H](Cc2ccc(-n3cc(C[N+](C)(C)C)nn3)cc2)C(=O)N[C@@H](Cc2ccc3ccccc3c2)C(=O)NC2(C(=O)N[C@@H](CCC(=O)O)C(=O)N[C@@H](CC(N)=O)C(=O)N[C@@H](Cc3cccnc3)C(=O)N(C)CC(N)=O)CCOCC2)NC1=O [compound 441] (Ac-[Pen]NT[Trp(7-Me)]K(Ac)[Pen][X16][2Nal][Thp]EN[3Pal][Sar]-NH2; disulfide 1-6 (inferred))
169 | CC(=O)NCCCC[C@@H]1NC(=O)[C@H](Cc2c[nH]c3c(C)cccc23)NC(=O)[C@H]([C@@H](C)O)NC(=O)[C@H](CC(N)=O)NC(=O)[C@@H](NC(C)=O)C(C)(C)SSC(C)(C)[C@@H](C(=O)N[C@@H](Cc2ccc(-n3cc(CCCC[N+](C)(C)C)nn3)cc2)C(=O)N[C@@H](Cc2ccc3ccccc3c2)C(=O)NC2(C(=O)N[C@@H](CCC(=O)O)C(=O)N[C@@H](CC(N)=O)C(=O)N[C@@H](Cc3cccnc3)C(=O)N(C)CC(N)=O)CCOCC2)NC1=O [compound 442] (Ac-[Pen]NT[Trp(7-Me)]K(Ac)[Pen][X33][2Nal][Thp]EN[3Pal][Sar]-NH2; disulfide 1-6 (inferred))
